# Data reported in BindingDB's records for doi:10.1002/cbic.201500446 (Hans Knöll Institute, 2015).
# Biological target: T1, Polyunsaturated fatty acid 5-lipoxygenase (Homo sapiens, UniProt P09917)
# T1 sequence (P09917 whole entry): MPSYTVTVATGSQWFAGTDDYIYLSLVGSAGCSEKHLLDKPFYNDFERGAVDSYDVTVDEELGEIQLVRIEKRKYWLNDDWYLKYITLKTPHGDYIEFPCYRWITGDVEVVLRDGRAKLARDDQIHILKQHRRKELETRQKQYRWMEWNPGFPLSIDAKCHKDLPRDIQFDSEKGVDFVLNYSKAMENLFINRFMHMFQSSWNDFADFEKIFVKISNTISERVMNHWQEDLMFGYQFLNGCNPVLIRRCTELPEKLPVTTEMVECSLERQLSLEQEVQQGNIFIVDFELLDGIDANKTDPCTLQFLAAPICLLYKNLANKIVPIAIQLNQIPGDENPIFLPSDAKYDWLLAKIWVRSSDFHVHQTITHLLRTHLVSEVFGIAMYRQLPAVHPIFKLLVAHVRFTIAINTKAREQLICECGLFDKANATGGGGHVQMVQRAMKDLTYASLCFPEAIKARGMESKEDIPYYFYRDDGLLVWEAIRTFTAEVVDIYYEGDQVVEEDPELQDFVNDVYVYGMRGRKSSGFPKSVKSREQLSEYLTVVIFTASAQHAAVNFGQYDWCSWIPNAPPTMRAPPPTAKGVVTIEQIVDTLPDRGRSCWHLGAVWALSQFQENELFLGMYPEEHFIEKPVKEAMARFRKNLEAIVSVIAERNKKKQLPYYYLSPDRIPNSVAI
# Assay: 5-LO Activity Assay
# Method: Purified 5-LO was diluted in PBS containing EDTA (1 mM) and freshly added ATP (1 mM) and incubated with the myxochelin test substances for 10 min at 4°C, followed by 30 s at 37°C. Addition of CaCl2 (2 mM) and arachidonic acid (20 µM) initiatedthe 5-LO product formation. After 10 min, the reaction was terminated by adding ice-old MeOH (1 mL), and the production of 5-LO metabolites was analyzed by RP-HPLC.
row,Compound,IC50 [µM]
1,O=C(NCCCC[C@@H](CO)NC(=O)c1ccccc1O)c1ccccc1O [Myxochelin J5],9.32
2,O=C(NCCCC[C@@H](CO)NC(=O)c1c(O)cccc1F)c1c(O)cccc1F [Myxochelin J8],3.6
3,O=C(NCCCC[C@@H](CO)NC(=O)c1cccc(O)c1O)c1ccccc1F [Myxochelin J9],8.4
4,O=C(N[C@H](CO)CCCCNC(=O)c1cccc(O)c1O)c1ccccc1F [Myxochelin J10],8.09
5,O=C(NCCCC[C@@H](CO)NC(=O)c1ccccc1F)c1ccccc1F [Myxochelin J11],> 10
6,O=C(NCCCC[C@@H](CO)NC(=O)c1cccc(F)c1)c1cccc(F)c1 [Myxochelin J12],> 10
7,O=C(NCCCC[C@@H](CO)NC(=O)c1cccc(O)c1O)c1ccccc1Cl [Myxochelin J13],4.6
8,O=C(N[C@H](CO)CCCCNC(=O)c1cccc(O)c1O)c1ccccc1Cl [Myxochelin J14],3.64

# Further compounds by falling IC50, results first:
row,IC50 [µM],Compound
1,3.54,O=C(N[C@H](CO)CCCCNC(=O)c1cccc(O)c1O)c1ccccc1O [Myxochelin J4]
2,3.15,O=C(NCCCC[C@@H](CO)NC(=O)c1cccc(O)c1O)c1ccccc1 [Myxochelin J1]
3,2.39,O=C(N[C@H](CO)CCCCNC(=O)c1cccc(O)c1O)c1ccccc1 [Myxochelin J2]
4,1.72,O=C(NCCCC[C@@H](CO)NC(=O)c1cccc(O)c1O)c1cccc(O)c1O [Myxochelin A]
5,1.52,O=C(NCCCC[C@@H](CO)NC(=O)c1cccc(O)c1O)c1ccccc1O [Myxochelin J3]
6,1.44,O=C(N[C@H](CO)CCCCNC(=O)c1c(O)cccc1F)c1cccc(O)c1O [Myxochelin J6]
7,1.18,O=C(NCCCC[C@@H](CO)NC(=O)c1c(O)cccc1F)c1cccc(O)c1O [Myxochelin J7]
